Target: T1, Dimer of Gag-Pol polyprotein [489-587] (Human immunodeficiency virus 1, UniProt P04585)
T1 construct: 489-587
Assay: Protease Inhibition Assay
Settings: pH 5.5; 30 °C
Protocol: Sensitivity of HIV-1 protease activity to protease inhibitors was determined by a peptide substrate cleavage assay. Protease products were analyzed on a reverse-phase high-pressure liquid chromatograph.

Row | SMILES | IC50 [nM]
1 | CCC(C)[C@H](NC(=O)[C@H](Cc1ccccc1)C[C@H](O)[C@H](Cc1ccccc1)NC(=O)OC(C)(C)C)C(=O)N[C@@H](Cc1ccccc1)C(N)=O (stereo partly drawn) [tert-butyl N-[(2S,3S,5R)-5-benzyl-5-{[(1S,2S)-1-{[(1S)-1-carbamoyl-2-phenylethyl]carbamoyl}-2-methylbutyl]carbamoyl}-3-hydroxy-1-phenylpentan-2-yl]carbamate] | 0.25
2 | CC(C)C[C@H](NC(=O)[C@H](Cc1ccccc1)C[C@H](O)[C@H](Cc1ccccc1)NC(=O)OC(C)(C)C)C(=O)N[C@@H](Cc1ccccc1)C(N)=O [Hydroxyethylene dipeptide isostere] | 0.6
